Laboratory results: patent US11918550B2, “Sensitization of cancer cells to differentiation therapy with mitochondrial uncoupler niclosamide ethanolamine” (The Board of Trustees of the Leland Stanford Junior …, priority 2020, dated 2024)

Columns and labels:
[1] = test system: orthotopic neuroblastoma xenograft (SK-N-BE(2) cells); test: Metabolite levels in orthotopic xenograft tumors by LC/MS; format: in vivo, mice; details: diet 2000 ppm NEN vs control
Description: Metabolic analysis. For the metabolomics and isotope tracing analysis in vitro, cells were washed with cold PBS, lysed in 80% Ultra LC-MS acetonitrile on ice for 15 minutes, centrifuged at 20,000 g for 10 minutes at 4° C., and supernatant was subjected to mass spectrometry analysis. For the metabolomics analysis in vivo, 10-20 mg tissue were cut off on ice, rinsed if necessary to remove blood, and place in a 2 ml round-bottom cryovial. The tissues were homogenized by 3 times 10 s on/off bursts homogenization in 1 ml 80% methanol on dry ice. Transfer the homogenate to an Eppendorf tube and keep on liquid nitrogen while processing the remaining samples. Incubated all the samples in −80° C. for 30 minutes. After incubation, vortexed the samples for 5 seconds. Then centrifuged the samples at 20,000 g for 10 minutes at 4° C., and supernatant was subjected to mass spectrometry analysis. Resuspend the remaining cellular pellet in 100 ul protein lysis buffer and determine the protein concentration. Then calculate the total protein content per sample.
Liquid chromatography was performed using an Agilent 1290 Infinity LC system (Agilent, Santa Clara, US) coupled to a Q-TOF 6545 mass spectrometer (Agilent, Santa Clara, US). A hydrophilic interaction chromatography method (HILIC) with a BEH amide column (100×2.1 mm i.d., 1.7 μm; Waters) was used for compound separation at 35° C. with a flow rate of 0.3 ml/minutes. The mobile phase A consisted of 25 mM ammonium acetate and 25 mM ammonium hydroxide in water and mobile phase B was acetonitrile. The gradient elution was 0-1 minute, 85% B; 1-12 minutes, 85% B→65% B; 12-12.2 minutes, 65% B→40% B; 12.2-15 minutes, 40% B. After the gradient, the column was re-equilibrated at 85% B for 5 minutes. The overall runtime was 20 minutes, and the injection volume was 5 μL. […]
Mouse orthotopic neuroblastoma model. […] Tumor formation was monitored by non-invasive ultrasound measurements, and the animals euthanized when the tumor volume exceeded 1,000 mm^3.

[2] = test system: N-Myc; test: N-Myc mRNA and protein levels (qPCR, western blot); format: cell-based; details: SK-N-BE(2) cells, 1 μM NEN
Description: Protein extraction and immunoblot. Cells were washed with ice-cold PBS buffer (Invitrogen, 20012050) and lysed with harvest buffer (10 mM Hepes pH 7.9, 50 mM NaCl, 500 mM sucrose, 0.1 mM EDTA and 0.5% Trition X-100) supplemented with 1% Halt inhibitors (Thermo Scientific™, 78443) for 10 minutes. Cell lysate was centrifuged at 3000 rpm for 3 min at 4° C. The supernatant containing cytosolic proteins was transferred to a different tube. The pellet containing nuclear proteins was dissolved with nuclear lysis buffer (10 mM Hepes pH 7.9, 0.5M NaCl, 0.1 mM EDTA, 0.1 mM EGTA and 0.1% NP40) supplemented with 1% Halt inhibitors (Thermo Scientific™, 78443) for 5 minutes at 4° C. Then the solution was sonicated at 4° C. for 6 cycles (1 cycle=30 s sonication and 30 s cooldown with “High” energy intensity) using a Bioruptor® Plus sonication (Diagenode, UCD-300). After sonication, the solution was centrifuged at 15,000 rpm for 10 minutes. The supernatant was kept as nuclear extraction. Protein concentration was determined by BCA assay (Thermo Scientific, 23227). […] Signals were detected with an ECL kit (Thermo Scientific™, 34577) by using BioRad Universal Hood II. […] Quantitative PCR amplification was performed on the Prism 7900 Sequence Detection System (Applied Biosystems) using Taqman Gene Expression Assays (Applied Biosystems). […]

## O=C(Nc1ccc([N+](=O)[O-])cc1Cl)c1cc(Cl)ccc1O [NEN, 5-chloro-N-(2-chloro-4-nitrophenyl)-2-hydroxybenzamide compound with 2-aminoethanol (1:1)]
[1]
  2-HG level in the tumor: reduced
  NAD+/NADH in the tumor: increased
  lactate level in the tumor: slightly reduced
[2]
  mRNA level of N-Myc: significantly reduced
  protein level of N-Myc: significantly reduced
